From US9321782B2, “Process for preparation of novel 42-O-(heteroalkoxyalkyl) rapamicin compounds with anti-proliferative properties” (MERIL LIFE SCIENCES PVT. LTD., priority 2010, dated 2016)

Columns and labels:
[1] = Stability analysis (HPLC purity on storage) with various concentrations of BHT at 40° C.; assay type: physicochemical; conditions: sealed container
Procedure: (§1) To check the purity of the 42-O-(heteroalkoxyalkyl) rapamycin compounds the following condition was followed by using High Performance Liquid Chromatography, Phenomenex Synergi Hydro-RP 80a (250×4.6 ) mm, 4 micron column. The mobile phase was 65:15:20 methanol:acetonitile:water mixture. The detector was set at 276 nm and the flow rate was adjusted to 1.5 mL/min. Column temperature was 40° C. 2.0 μg of 42-O-(heteroalkoxyalkyl) rapamycin compounds was injected onto the column in a volume of 5.0 μL methanol with run time of 50 min.
The inventors have also conducted the stability study of various 42-O-(heteroalkoxyalkyl) rapamycin compounds as mentioned above using various BHT concentrations. The study was conducted at 40° C. temperature in sealed container for 8 weeks.
42-O-(heteroalkoxyalkyl) rapamycin compounds obtained as per procedure described in Example 1 are respectively added with anti-oxidant, namely Butylated Hydroxytoluene (or BHT), at a concentration of 0.1%, 0.2%, 0.5%, and 1.0% (w/w) based on 100% (w/w) of 42-O-(heteroalkoxyalkyl) rapamycin compounds in sealed container to study the stability at 40° C. temperature. […] The purity data with the addition of different amounts of anti-oxidant as added to 42-O-(tetrahydrofuran-3-yl) rapamycin compound, 42-O-(oxetan-3-yl) rapamycin compound and 42-O-(tetrahydropyran-3-yl) rapamycin compound checked at different time intervals are summarized in Table 2B as below mentioned.

[2] = Stability analysis (HPLC purity on storage) without BHT at various temperatures; assay type: physicochemical; conditions: without BHT
Procedure: as §1
The purity loss was higher at increased temperature, but there was no apparent change in the impurity profile. Table 2A presents the purity of various 42-O-(heteroalkoxyalkyl) rapamycin compounds at different time intervals and temperature conditions.

COC1CC(C[C@H](C)[C@@H]2CC(=O)[C@H](C)/C=C(\C)C(O)[C@@H](OC)C(=O)[C@H](C)C[C@H](C)/C=C/C=C/C=C(\C)[C@@H](OC)C[C@@H]3CC[C@@H](C)[C@@](O)(O3)C(=O)C(=O)N3CCCC[C@H]3C(=O)O2)CCC1OC1CCCOC1 (stereo partly shown) [Merilimus-3, 42-O-(tetrahydropyran-3-yl) rapamycin]
Purity (%) ([1]; BHT 0.0% (w/w), 0 week): 97.5%
Purity (%) ([1]; BHT 0.0% (w/w), 2 weeks): 94.4%
Purity (%) ([1]; BHT 0.0% (w/w), 4 weeks): 93.7%
Purity (%) ([1]; BHT 0.0% (w/w), 8 weeks): 92.3%
Purity (%) ([1]; BHT 0.1% (w/w), 0 week): 97.5%
Purity (%) ([1]; BHT 0.1% (w/w), 2 weeks): 95.9%
Purity (%) ([1]; BHT 0.1% (w/w), 4 weeks): 94.3%
Purity (%) ([1]; BHT 0.1% (w/w), 8 weeks): 93.6%
Purity (%) ([1]; BHT 0.2% (w/w), 0 week): 97.6%
Purity (%) ([1]; BHT 0.2% (w/w), 2 weeks): 96.3%
Purity (%) ([1]; BHT 0.2% (w/w), 4 weeks): 95.6%
Purity (%) ([1]; BHT 0.2% (w/w), 8 weeks): 94.1%
Purity (%) ([1]; BHT 0.5% (w/w), 0 week): 97.3%
Purity (%) ([1]; BHT 0.5% (w/w), 2 weeks): 96.5%
Purity (%) ([1]; BHT 0.5% (w/w), 4 weeks): 95.9%
Purity (%) ([1]; BHT 0.5% (w/w), 8 weeks): 94.5%
Purity (%) ([1]; BHT 1.0% (w/w), 0 week): 97.4%
Purity (%) ([1]; BHT 1.0% (w/w), 2 weeks): 96.6%
Purity (%) ([1]; BHT 1.0% (w/w), 4 weeks): 95.6%
Purity (%) ([1]; BHT 1.0% (w/w), 8 weeks): 94.9%
Purity (%) ([2]; 5° C. (sealed), 00 weeks after synthesis): 97.3%
Purity (%) ([2]; 5° C. (sealed), 02 weeks after synthesis): 96.0%
Purity (%) ([2]; 5° C. (sealed), 04 weeks after synthesis): 95.4%
Purity (%) ([2]; 5° C. (sealed), 08 weeks after synthesis): 94.5%
Purity (%) ([2]; 5° C. (sealed), 12 weeks after synthesis): 93.9%
Purity (%) ([2]; 25° C. (sealed), 00 weeks after synthesis): 97.6%
Purity (%) ([2]; 25° C. (sealed), 02 weeks after synthesis): 95.7%
Purity (%) ([2]; 25° C. (sealed), 04 weeks after synthesis): 95.2%
Purity (%) ([2]; 25° C. (sealed), 08 weeks after synthesis): 94.6%
Purity (%) ([2]; 25° C. (sealed), 12 weeks after synthesis): 93.5%
Purity (%) ([2]; 25° C. (unsealed), 00 weeks after synthesis): 97.0%
Purity (%) ([2]; 25° C. (unsealed), 02 weeks after synthesis): 95.3%
Purity (%) ([2]; 25° C. (unsealed), 04 weeks after synthesis): 94.5%
Purity (%) ([2]; 25° C. (unsealed), 08 weeks after synthesis): 93.8%
Purity (%) ([2]; 25° C. (unsealed), 12 weeks after synthesis): 93.1%
Purity (%) ([2]; 40° C. (sealed), 00 weeks after synthesis): 97.5%
Purity (%) ([2]; 40° C. (sealed), 02 weeks after synthesis): 94.4%
Purity (%) ([2]; 40° C. (sealed), 04 weeks after synthesis): 93.7%
Purity (%) ([2]; 40° C. (sealed), 08 weeks after synthesis): 92.3%
Purity (%) ([2]; 40° C. (sealed), 12 weeks after synthesis): 91.6%
